Experimental data: ChEMBL document CHEMBL4011637, “Synthesis of 8-Substituted Analogues of Cyclic ADP-4-Thioribose and Their Unexpected Identification as Ca2+-Mobilizing Full Agonists” (J Med Chem, 2017)
Each block holds one compound with its values, some of them ahead of it. The source made the active and inactive calls. The calls are words filed in the database; no cut-off is given here.

Key:
[1] = target: Ryanodine receptor (Hemicentrotus pulcherrimus) (UniProt Q8TA74); assay: Antagonist activity at ryanodine receptor in Hemicentrotus pulcherrimus egg homogenate assessed as decrease in intracellular calcium mobilization by Fluo-3 dye based fluorimetric assay; type: cell-based
[2] = target: Ryanodine receptor (Hemicentrotus pulcherrimus, UniProt Q8TA74); assay: (§1) Agonist activity at ryanodine receptor in Hemicentrotus pulcherrimus egg homogenate assessed as increase in intracellular calcium mobilization by Fluo-3 dye based fluorimetric assay; type: cell-based
[3] = target: Ryanodine receptor (Hemicentrotus pulcherrimus) (UniProt Q8TA74); assay: as §1; type: cell-based
[4] = species on record: Homo sapiens; assay: Agonist activity at ryanodine receptor (unknown origin) in T cells assessed as increase in intracellular calcium mobilization by Fluo-3 dye based fluorimetric assay; type: cell-based
[5] = Dissociation constant, pKa of the compound; type: physicochemical
[6] = species on record: Homo sapiens; assay: Agonist activity at ryanodine receptor (unknown origin) in neuronal cells assessed as increase in intracellular calcium mobilization by Fluo-3 dye based fluorimetric assay; type: cell-based

Compound: Nc1c2nc(Cl)n3c2nc[n+]1[C@@H]1S[C@H](COP(=O)([O-])OP(=O)(O)OC[C@H]2O[C@@H]3[C@H](O)[C@@H]2O)[C@@H](O)[C@H]1O
inhibition [1]: inactive
EC50 [2]: 12000 nM

Compound: Nc1nc2c(N)[n+]3cnc2n1[C@@H]1O[C@H](COP(=O)(O)OP(=O)([O-])OC[C@H]2S[C@@H]3[C@H](O)[C@@H]2O)[C@@H](O)[C@H]1O
inhibition [1]: inactive
EC50 [2]: 870 nM

Compound: Nc1c2nc(Cl)n3c2nc[n+]1[C@@H]1C[C@H](COP(=O)(O)OP(=O)([O-])OC[C@H]2O[C@@H]3[C@H](O)[C@@H]2O)[C@@H](O)[C@H]1O
Activity [3]: Active

Compound: [N-]=[N+]=Nc1nc2c(N)[n+]3cnc2n1[C@@H]1O[C@H](COP(=O)(O)OP(=O)([O-])OC[C@H]2C[C@@H]3[C@H](O)[C@@H]2O)[C@@H](O)[C@H]1O
Activity [3]: Active

Compound: Nc1c2ncn3c2nc[n+]1[C@@H]1S[C@H](COP(=O)([O-])OP(=O)(O)OC[C@H]2O[C@@H]3[C@H](O)[C@@H]2O)[C@@H](O)[C@H]1O
Activity [4]: Active
pKa [5]: 8
Activity [6]: Active
EC50 [2]: 39 nM

Compound: Nc1nc2c(N)[n+]3cnc2n1[C@@H]1O[C@H](COP(=O)([O-])OP(=O)(O)OC[C@H]2C[C@@H]3[C@H](O)[C@@H]2O)[C@@H](O)[C@H]1O
Activity [3]: Active

Compound: [N-]=[N+]=Nc1nc2c(N)[n+]3cnc2n1[C@@H]1O[C@H](COP(=O)(O)OP(=O)([O-])OC[C@H]2S[C@@H]3[C@H](O)[C@@H]2O)[C@@H](O)[C@H]1O
EC50 [2]: 37000 nM

Compound: Nc1c2ncn3c2nc[n+]1[C@@H]1O[C@H](COP(=O)([O-])OP(=O)(O)OC[C@H]2O[C@@H]3[C@H](O)[C@@H]2O)[C@@H](O)[C@H]1O
Activity [4]: Active
pKa [5]: 8.3
EC50 [2]: 210 nM
Activity [3]: Dose-dependent effect

pKa [5]: 9
Compound: Nc1c2ncn3c2nc[n+]1[C@@H]1C[C@H](COP(=O)([O-])OP(=O)(O)OC[C@H]2O[C@@H]3[C@H](O)[C@@H]2O)[C@@H](O)[C@H]1O
Activity [4]: inactive
Activity [6]: Active
